In brackets after ≈: the same amount, converted by molar mass.

Data set [1] can be described thus: Dynamic vapor sorption/desorption (DVS). It counts as physicochemical. How it is done: Dynamic vapor sorption/desorption (DVS) data were collected on a VTI SGA-100 Vapor Sorption Analyzer. […] Samples were not dried prior to analysis. Equilibrium criteria used for analysis were less than 0.0100% weight change in 5 minutes, with a maximum equilibration time of 3 hours if the weight criterion was not met. Data were not corrected for the initial moisture content of the samples. Sodium chloride and polyvinylpyrrolidine (PVP) were used as calibration standards.

Data set [2] in a line: Solubility of salts in water by HPLC at 23° C. It counts as physicochemical. As to conditions: for Adjusted pH: pH after adjustment to approximately 3.5; for Native pH: supernatant of saturated solution in water. The procedure: In another set of experiments, solubility of various radezolid salts was determined by HPLC. Approximately 1 mL of saturated solution (with excess of solid in solution) of each salt was prepared in water. The mixture was further mixed overnight on a slurry wheel then centrifuged on a desktop centrifuge at maximum speed for approximately 5 min. The supernatant was collected, and pH was measured. Solubility was determined at the native pH. Then the pH was adjusted to approximately 3.5 with sodium hydroxide solution or an acid solution in which salt was generated. The supernatant was filtered through a 0.2 µm nylon syringe filter and diluted into 0.1% formic acid solution immediately after filtration for HPLC. All HPLC analyses were performed using an Agilent 1100 series liquid chromatograph equipped with a diode array detector, degasser, quaternary pump, and an autosampler. […] The column temperature was set to 30° C., and the detector wavelength was 270 nm with a bandwidth of 8 nm and a reference wavelength of 360 nm. The mobile phase A was 0.1% formic acid in water (HPLC grade), mobile phase B was 0.1% formic acid in methanol (HPLC grade). […] The injection volume was 5 μL.

The test system of data set [3] is B. thetaiotaomicron ATCC 29741. Kind of data set: microbe, parasite or virus in culture. It counts as cell-based. As to conditions: for MIC: Bacteroides thetaiotaomicron, ATCC29741, read-out: MIC, Broth.
The subject of data set [4] is Staphylococcus aureus 01A1095, Mac-R. Kind of data set: MIC against ribosome-based resistance phenotypes. It counts as cell-based. Particulars: read-out: Minimum Inhibitory Concentration (MIC).
Data set [5] is described as follows: Solubility of salts in water, visual/microscopic. How it is done:
Approximately 2-3.5 mg of each salt was weighed into a glass vessel at ambient temperature. HPLC grade water, 200 μL, was added to each and stirred with a stir bar for two hours. Samples were inspected for solubility both visually and/or microscopically using a Carl Zeiss SV8 stereomicroscope.

A short description of data set [6]: Solubility of salts in approved topical solvents. It counts as physicochemical. How it is done:
The solubility of radezolid HCl salt in various approved topical solvents was measured at 19-21° C. by adding a known amount of the radezolid HCl salt to a known amount of the solvent. Increasing amounts of the radezolid HCl salt were added if the solvent was not saturated.
The solubility of radezolid esylate and mesylate salts in various approved topical solvents was measured at 19-21° C. by adding a known amount of the radezolid salts to a known amount of the solvent. Increasing amounts of the radezolid salts were added if the solvent was not saturated.

The next data set can be described thus: physchem. The format is physicochemical. Particulars: pH 5.5, aqueous buffer.
The next data set relates to F. magna ATCC 15794. As to the kind of experiment: Agar dilution MIC (CLSI reference method). The format is cell-based. In general terms: In agar dilution, organisms are placed on agar that contains the substance at set levels.
The subject of another data set is P. acnes ATCC 11828. As to the kind of experiment: Agar dilution MIC (CLSI reference method). It counts as cell-based. Particulars: P. acnes (isolates of Table 1).
For data set [7], the system named is P. granulosum ATCC 25746. As to the kind of experiment: Agar dilution MIC (CLSI reference method). It counts as cell-based.
The test system of a further data set is G. vaginalis ATCC 14018. As to the kind of experiment: Agar dilution MIC (CLSI reference method). It counts as cell-based. Particulars: G. vaginalis (isolates of Table 1).
In data set [8] the test system is S. aureus ATCC 29213. Kind of data set: Agar dilution MIC (CLSI reference method). It counts as cell-based. Particulars: Staphylococcus aureus, ATCC29213.
The subject of data set [9] is P. granulosum ATCC 25746. As to the kind of experiment: Broth microdilution MIC (CLSI). The format is cell-based.
The next data set has as its system G. vaginalis ATCC 49145. As to the kind of experiment: Broth microdilution MIC (CLSI). The format is cell-based. Particulars: G. vaginalis 49145.
The nature of data set [10]: Granuloma pouch: bacterial burden and radezolid levels in pouch and plasma. The format is in vivo. As to conditions: FIGS. 3-4.
A short description of data set [11]: Solubility of free base in oily excipients. It counts as physicochemical. As to conditions: 19-21° C. How it is done:
The solubility of radezolid free base in various oily excipients was measured at 19-21° C. by adding a known amount of the free base to a known amount of the oily excipients. Increasing amounts of the free base were added if the oily excipient was not saturated.
In some embodiments, facial acne formulations are disclosed herein. In some embodiments, the amount of oil in an emulsion base (cream or lotion) is between 10-15% w/w. In further embodiments, the amount of oil in an emulsion base (cream or lotion) is less than 10%. To obtain a 1% w/w formulation of the free base dissolved in a dispersed oil phase, its solubility in that oil phase needs to be approximately 10% w/w. Radezolid free base was screened in oily excipients at a level of approximately 5% w/w. If an oily excipient could not dissolve at least 5% w/w, it would be unlikely to contribute to higher solubility in other oily excipients (i.e. low potential for synergy).

The subject of the next data set is ten isolates (ATCC). It counts as cell-based. Particulars: for all organisms.
The conditions of data set [12]: in vivo.
For data set [13], the system named is mammalian cells (e.g., defense cells, macrophages, lung cells, and non-phagocytic cells). Particulars: cited from earlier work.
The nature of data set [14]: Long-term rat safety study (body weight, survival, clinical pathology, exposure).
For data set [15], the system named is S. aureus ATCC 29213. As to the kind of experiment: Broth microdilution MIC (CLSI). It counts as cell-based. For orientation: Broth dilution looks for growth in wells or tubes with falling amounts of substance.

With `O=S(=O)(O)CCS(=O)(=O)O` [Ethane-1,2-disulfonate], in [1], the “DVS Desorption: weight loss from 95 to 5% RH” value is recorded as “Desorption: 2.388% weight loss” and the “DVS Sorption: weight loss upon equilibration at 5% RH” value is “Sorption: 0.017% weight loss”. Besides, in [2], the “Adjusted pH” value came to 3.6 and the “Native pH” value amounted to 2.0. Besides, in [2] (water, 23° C., HPLC), the “Solubility at Native pH” value is given as over 133.2 mg/mL. For the same compound, in [2] (water, 23° C., HPLC, pH adjusted to approximately 3.5), the “Solubility at Adjusted pH” value is reported as over 116.9 mg/mL.

With `CN(C)[C@@H]1C(O)=C(C(N)=O)C(=O)[C@@]2(O)C(O)=C3C(=O)c4c(O)cccc4[C@@](C)(O)[C@H]3C[C@@H]12` [TET, tetracycline], in data set [3], the MIC was 8 µg/mL (≈ 18 µM).

Turning to `CC[C@H]1OC(=O)[C@H](C)[C@@H](O[C@H]2C[C@@](C)(OC)[C@@H](O)[C@H](C)O2)[C@H](C)[C@@H](O[C@@H]2O[C@H](C)C[C@H](N(C)C)[C@H]2O)[C@](C)(O)C[C@@H](C)CN(C)[C@H](C)[C@@H](O)[C@]1(C)O` [Azithromycin, azithromycin], the MIC in [4] came out at 128 µg/mL (≈ 171 µM).

Consider `O=C(O)c1ccccc1O` [Salicylate], for which the Solubility in [5] was under 30 µg/mL.

In the case of `CC[C@H]1OC(=O)[C@H](C)[C@@H](O[C@H]2C[C@@](C)(OC)[C@@H](O)[C@H](C)O2)[C@H](C)[C@@H](O[C@@H]2O[C@H](C)C[C@H](N(C)C)[C@H]2O)[C@](C)(O)C[C@@H](C)C(=O)[C@H](C)[C@@H](O)[C@]1(C)O` [ERY, erythromycin], the MIC in data set [3] worked out at 16 µg/mL (≈ 21.8 µM).

In the case of `CC(=O)NC[C@H]1CN(c2ccc(-c3ccc(CNCc4c[nH]nn4)cc3)c(F)c2)C(=O)O1.Cl` [Hydrochloride, (5S)—N-[3-(2-Fluoro-4′-{[(1H-[1,2,3]triazol-4-ylmethyl)-amino]-methyl}-biphenyl-4-yl)-2-oxo-oxazolidin-5-ylmethyl]-acetamide Chloride], the “DVS Desorption: weight loss from 95 to 5% RH” value in data set [1] was “Desorption: 0.069% weight loss”. The “DVS Sorption: weight gain from 5 to 95% RH” value in data set [1] turned out to be 0.064% weight gain from 5 to. The “DVS Sorption: weight gain upon equilibration at 5% RH” value in [1] is listed as “Sorption: 0.03% weight gain”. The Solubility in data set [2] (pH 4.6, thermodynamic from solid, water, 23° C., HPLC, read-out: Solubility at Native pH) was 1700 µg/mL; in data set [6] (50% Ethanol/50% phosphate buffer (pH = 7.4), 19-21° C.), under 0.2 % w/w; in data set [6] (50% Ethanol/50% water, 19-21° C.), under 0.6 % w/w; in data set [6] (Diethylene glycol monoethyl ether (Transcutol), 19-21° C.), under 0.2 % w/w; in data set [6] (Ethanol, 19-21° C.), under 0.2 % w/w; in [6] (Glycerin, 19-21° C.), under 0.2 % w/w. Moreover, the Solubility was under 0.2 % w/w in [6] (Hexylene glycol, 19-21° C.); under 0.2 % w/w in data set [6] (PEG 300, 19-21° C.); under 0.2 % w/w in data set [6] (Phosphate buffer (pH = 7.4), 19-21° C.); under 0.2 % w/w in [6] (Propylene glycol, 19-21° C.); over 100 µg/mL in “physchem”. Besides, the “Adjusted pH” value in [2] came to 3.5. The “Native pH” value in data set [2] is on record as 4.6.

Fumarate: in data set [5] (HPLC grade water, ambient temperature), the Solubility is 2600 µg/mL.

Take `Cc1ncc([N+](=O)[O-])n1CCO` [MET, metronidazole]: the MIC in data set [3] was determined as 4 µg/mL (≈ 23.4 µM).

Turning to Phosphate, the Solubility in data set [5] stood at 1100 µg/mL.

Regarding `CC(=O)NC[C@H]1CN(c2ccc(-c3ccc(CNCc4cnn[nH]4)cc3)c(F)c2)C(=O)O1` [Radezolid, N-[3-(2-Fluoro-4′-{[(1H-[1,2,3]triazol-4-ylmethyl)-amino]-methyl}-biphenyl-4-yl)-2-oxo-oxazolidin-5-(S)-ylmethyl]-acetamide], the “Agar dilution MIC more potent than linezolid” value came to 4 fold with F. magna ATCC 15794, 4 fold with P. acnes ATCC 11828, 8 fold with P. granulosum ATCC 25746 [7] and 8 fold in the data set on G. vaginalis ATCC 14018. The same compound showed an MIC in the data set with S. aureus ATCC 29213 [8] of 1 µg/mL (≈ 2.28 µM). In addition, the “Broth microdilution: more active than linezolid” value with P. granulosum ATCC 25746 [9] and in the data set with G. vaginalis ATCC 49145 was 8 fold each time. Moreover, the “radezolid levels in granuloma pouch versus plasma over time” value in data set [10] is “remain high in granuloma pouch even as they decline in the plasma”. For the same compound, the Solubility is under 1.5 % w/w in data set [11] (Benzyl benzoate (BB)); under 0.75 % w/w in [11] (Cyclomethicone); under 1.5 % w/w in [11] (Diisopropyl adipate (DIA)); under 1 % w/w in [11] (Mineral oil); under 0.75 % w/w in [11] (Oleic acid). The “agar dilution MICs, range over organisms” value in the data set with ten isolates (ATCC) was 0.06 to 1 µg/mL. Besides, the survival in [12] (both, rat) came to 100%. Further, the “safety in long-term rat studies, overall” value in data set [12] is given as “good safety”. Besides, the “changes in hematology, coagulation, clinical chemistry, or urinalysis” value in data set [12] (rat) is reported as “No test article-related changes were observed”. Moreover, the “accumulation in mammalian cells, greater extent than linezolid” value in [13] is 17 fold. The “share accumulating in the cytosol of cells” value in data set [13] is given as “Approximately 60%”. In addition, in data set [13], the “share accumulating in the lysosome” value is reported as “approximately 40%”. Besides, in data set [14] (rat 200 mg/kg Day 29 vs human 300 mg), the “Safety margin (Rat NOAEL AUC/Human efficacious AUC)” value was determined as 30.8x.

Compound `CCC[C@@H]1C[C@@H](C(=O)N[C@@H]([C@H]2O[C@H](SC)[C@H](O)[C@@H](O)[C@H]2O)[C@H](C)Cl)N(C)C1` [Clindamycin, clindamycin] displayed an MIC in the data set with S. aureus ATCC 29213 [8] of 0.25 µg/mL (≈ 0.588 µM). The “MIC lower than radezolid” value in the data set with S. aureus ATCC 29213 [15] was 8 fold.

On to `C[C@H]1c2cccc(O)c2C(=O)C2=C(O)[C@]3(O)C(=O)C(C(N)=O)=C(O)[C@@H](N(C)C)[C@@H]3[C@@H](O)[C@@H]21` [DOX, doxycycline], for which the “MIC more potent than radezolid” value in [3] (B. thetaiotaomicron) was determined as 4 fold. The MIC in data set [3] turned out to be 2 µg/mL (≈ 4.5 µM). Moreover, the “MIC lower than radezolid” value in the data set with S. aureus ATCC 29213 [15] was 4 fold.

Regarding `CC(=O)NC[C@H]1CN(c2ccc(N3CCOCC3)c(F)c2)C(=O)O1` [Linezolid, linezolid, reference compound], the MIC with S. aureus ATCC 29213 [8] turned out to be 2 µg/mL (≈ 5.93 µM). Also, in [12] (rat, 100 mg/kg/day), the bone marrow cellularity result is “decreased cellularity of sternal and femoral bone marrow”. Moreover, the “hematology at unscheduled euthanization” value in data set [14] (rat, 100 mg/kg/day, day 75) was “decreased red cell mass, absolute reticulocyte and neutrophil counts”.

These data come from patent US20190358206A1, “TOPICAL FORMULATIONS OF BIARYL HETEROCYCLIC COMPOUNDS AND METHODS OF USE THEREOF” (Melinta Subsidiary Corp., priority 2016, published 2019).
